In patent publication US7326700B2, “Cyclohexenyl phenyl carboxamides tocolytic oxytocin receptor antagonists” (Wyeth, priority 2001, dated 2008):

These molecules were tested against T1, human oxytocin receptor (Homo sapiens, UniProt P30559) (assay: Oxytocin binding in CHO cell membranes expressing human oxytocin receptors ([3H]oxytocin radioligand binding)). Conditions: 100 nM.
T1 construct: host or cells: CHO cells, stably transfected (pcDNA3.1 vector)
T1 sequence (P30559 1-389): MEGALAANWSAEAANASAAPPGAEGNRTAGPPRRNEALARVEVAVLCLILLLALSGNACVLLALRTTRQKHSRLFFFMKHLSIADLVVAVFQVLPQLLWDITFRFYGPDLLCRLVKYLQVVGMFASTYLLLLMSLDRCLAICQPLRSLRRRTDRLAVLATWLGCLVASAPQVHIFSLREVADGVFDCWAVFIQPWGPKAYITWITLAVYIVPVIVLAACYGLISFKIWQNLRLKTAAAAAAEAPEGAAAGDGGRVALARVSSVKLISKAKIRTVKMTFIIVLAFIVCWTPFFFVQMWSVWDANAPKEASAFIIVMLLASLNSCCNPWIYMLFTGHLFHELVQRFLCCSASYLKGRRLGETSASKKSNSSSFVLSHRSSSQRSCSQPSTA
Description: Chinese Hamster Ovary (CHO) cells stably transfected with the human oxytocin recptor (cf. Tanizawa et al., U.S. Pat. No. 5,466,584 (1995) to Rohto Pharmaceutical Co. Ltd., Osaka, Japan) were obtained from M. Thibonnier, Case Western Reserve University School of Medicine, Cleveland, Ohio.
CHO cells transfected with the human oxytocin receptors obtained from M. Thibonnier (pcDNA3.1 vector) are allowed to grow to confluency (approx. >90%) in T-150 flasks under sterile conditions, in a cell culture medium consisting of F-12 Nutrient Mixture (HAM) with L-glutamine (Gibco Cat. #11765-054) containing 15 mM HEPES (Gibco Cat. #15630-080), 1% antibiotic/antimycotic (add 5 mL 1 00×, Gibco Cat. #15240-062 per 500 mL F-12), 400 μg/mL of Geneticin (add 4 mL of 50 mg/mL per 500 mL F-12) and 10% Fetal Bovine Serum (Qualified, heat inactivated, Gibco Cat. #16140-063). The medium is removed by aspiration and the cells are washed with 10 mL of Hank's Balanced Salt solution (Gibco Cat. #14175-095). The salt solution is removed by aspiration and the cells trypsinized with 5 mL of trypsin-EDTA (0.05% trypsin, 0.53 mM EDTA-4Na, Gibco Cat. #25300-070) for 1 min The trypsin is removed by aspiration and the cells dislodged by tapping. Cell Culture medium (e.g. 30 mL for 1:30 split) is immediately added and mixed well to inactivate trypsin. 1 mL of detached cells is added to new culture flasks containing fresh Cell Culture medium (e.g. into 25 mL per T-150 flask), and mixed gently. The cells are incubated at 37° C. in 5% CO2. The medium is changed at 3 to 4 days interval (or as appropriate). The cells grow to confluency (approx. >75%-95%) within 7-8 days. All steps are done under sterile conditions.
The cells are washed twice gently with Hank's Balanced Salt solution (eg, use 10 mL per T-150 flask). The excess solution is removed and the cells bathed for 15-30 min. in an enzyme-free Cell Dissociation Buffer (eg, use 8 mL Hank's Based, Gibco Cat. #13150-016 per T-150 flask) until cells are loosened. The contents are transferred to centrifuge tubes (50 mL size) kept in ice bath. All subsequent steps are done at 4° C. The tubes are centrifuged at 300×g for 15 min (1380 rpm on SORVAL, Model RT6000D, using rotor for 50 mL tubes). The supernatant is discarded and the cells suspended in homogenizing buffer (10 mM Tris-HCl containing 0.25 M sucrose and 1 mM EDTA, pH 7.4) ensuring that the volume of the buffer is about ten times the volume of the cell pellet. The cells are pooled into a centrifuge tube (50 mL) and homogenized with a Polytron at setting 6 for 10 sec. The homogenate is transferred into a Potter-Elvjehm homogenizer and homogenized with 3 strokes. The homogenate is centrifuged at 1500×g for 10 min at 4° C. (3100 rpm using SORVAL, model RT6000D, using rotor for 50 mL tubes). The pellet is discarded. The supernatant is centrifuged at 100,000×g for 60 min. at 4° C. (Beckman L8-80M ultracentrifuge; spin at 37,500 rpm with rotor type 70 Ti for 50 mL tubes; 38,000 rpm with type 80 Ti for 15 mL tubes; or 35,800 rpm with rotor type 45Ti). The supernantant is discarded and the pellet suspended in 3 to 4 mL of Tris buffer (50 mM TRIS-HCl, pH 7.4). The protein content is estimated by the Bradford or Lowry method. The volume of the membrane suspension is adjusted with the membrane buffer (50 mM Tris-HCl containing 0.1% BSA and 0.1 mM PMSF) to give 3.0 mg/mL (or as appropriate) of protein. The membranes are aliquoted and stored at −70° C.
In wells of a 96-well format microtiter plate, is added 90, 110 or 130 μL (to make up a final volume of 200 μL) of assay buffer containing 50 mM of Tris-HCl (pH 7.4), […], 1 mg % aprotinin, 1 mg % leupeptin, 2 mg % 1,10-phenanthroline, 10 mg % trypsin inhibitor, and 0.1 mM PMSF. The inhibitors are added on the day of the experiment. The components are mixed at room temperature, and then kept in ice bath following adjustment of the pH to 7.4. […]
`Cc1cc(C(=O)N2Cc3ccc(C(=O)N4CCC(N5CCCCC5)CC4)n3Cc3ccccc32)ccc1C1=CCCCC1` [Example 17, {10-[4-(1-Cyclohex-1-en-1-yl)-3-methylbenzoyl]-10,11-dihydro-5H-pyrrolo[2,1-c][1,4]benzodiazepin-3-yl}[4-(1-piperidinyl)-1-piperidinyl]methanone] was tested, and the “OT % inhibition @ 100 nM” value was 86%. In the case of `Cc1cc(C(=O)N2Cc3ccc(C(=O)N4CCC[C@H]4CN4CCCC4)n3Cc3ccccc32)ccc1C1=CCCCC1` [Example 26, {10-[4-(1-Cyclohex-1-en-1-yl)-3-methylbenzoyl]-10,11-dihydro-5H-pyrrolo[2,1-c][1,4]benzodiazepin-3-yl}[(2S)-2-(1-pyrrolidinylmethyl)pyrrolidinyl]methanone], the “OT % inhibition @ 100 nM” value is reported as 101%. In the case of `Cc1cc(C(=O)N2Cc3ccc(C(=O)N4CCN(CCN(C)C)CC4)n3Cc3ccccc32)ccc1C1=CCCCC1` [Example 22, {10-[4-(1-Cyclohex-1-en-1-yl)-3-methylbenzoyl]-10,11-dihydro-5H-pyrrolo[2,1-c][1,4]benzodiazepin-3-yl}{4-[2-(dimethylamino)ethyl]-1-piperazinyl}methanone], the “OT % inhibition @ 100 nM” value is reported as 92%. For `Cc1cc(C(=O)N2Cc3ccc(C(=O)N4CCCN(C)CC4)n3Cc3ccccc32)ccc1C1=CCCCC1` [Example 13, {10-[4-(1-Cyclohex-1-en-1-yl)-3-methylbenzoyl]-10,11-dihydro-5H-pyrrolo[2,1-c][1,4]benzodiazepin-3-yl}(4-methyl-1,4-diazepan-1-yl)methanone], the “OT % inhibition @ 100 nM” value was 90%. With `Cc1cc(C(=O)N2Cc3ccc(C(=O)NCCCN(C)C)n3Cc3ccccc32)ccc1C1=CCCCC1` [Example 14, 10-[4-(1-Cyclohex-1-en-1-yl)-3-methylbenzoyl]-N-[3-(dimethylamino)propyl]-10,11-dihydro-5H-pyrrolo[2,1-c][1,4]benzodiazepine-3-carboxamide] the “OT % inhibition @ 100 nM” value was 57%.

Same assay, conditions: 100 nM, read-out: OT % inhibition @ 100 nM
For `Cc1cc(C(=O)N2Cc3ccc(C(=O)N4CCN(CCCN(C)C)CC4)n3Cc3ccccc32)ccc1C1=CCCc2ccccc21` [Example 7, {10-[4-(3,4-Dihydro-naphthalen-1-yl)-3-methyl-benzoyl]-10,11-dihydro-5H-pyrrolo[2,1-c][1,4]benzodiazepin-3-yl}-[4-(3-dimethylamino-propyl)-piperazin-1-yl]-methanone], the inhibition at 0.1 µM was 91%. For `COc1cc(C2=CCCCC2)c(Cl)cc1C(=O)N1Cc2ccc(C(=O)N(C)CCCN(C)C)n2Cc2ccccc21` [Example 2, 10-(5-Chloro-4-cyclohex-1-en-1-yl-2-methoxybenzoyl)-N-[3-(dimethylamino)propyl]-N-methyl-10,11-dihydro-5H-pyrrolo[2,1-c][1,4]benzodiazepine-3-carboxamide], the inhibition at 0.1 µM was 100%. Work on `CC1=C(c2ccc(C(=O)N3Cc4ccc(C(=O)N5CCN(C)CC5)n4Cc4ccccc43)cc2C)CCCC1O` (centres unmarked) [Example 10, [4-(3-Hydroxy-2-methyl-cyclohex-1-en-1-yl)-3-methyl-phenyl]-[3-(4-methyl-piperazine-1carbonyl)-10,11-dihydro-5H-pyrrolo[2,1-c][1,4]benzodiazepin-10-yl]-methanone] yielded an inhibition at 0.1 µM of 91%.
